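Where inhibition never reached the appropriate level, the endpoint shown equals the highest concentration tested. Otherwise, values were interpolated linearly from a five-concentration, 48-hour dose response in 96-well plates. TGI denotes the concentration required for complete inhibition of growth.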
Columns and labels:
Experiment in all cases: DTP human tumour cell line panel, 48 h
786-0 renal = tested on: 786-0 renal
A498 renal = tested on: A498 renal
A549 NSCLC = tested on: A549 NSCLC
ACHN renal = tested on: ACHN renal
BT-549 breast = tested on: BT-549 breast
CCRF-CEM leukemia = tested on: CCRF-CEM leukemia
COLO 205 colon = tested on: COLO 205 colon
DU-145 prostate = tested on: DU-145 prostate
EKVX NSCLC = tested on: EKVX NSCLC
HCC-2998 colon = tested on: HCC-2998 colon
HCT-116 colon = tested on: HCT-116 colon
HCT-15 colon = tested on: HCT-15 colon
HL-60(TB) leukemia = tested on: HL-60(TB) leukemia
HOP-62 NSCLC = tested on: HOP-62 NSCLC
HOP-92 NSCLC = tested on: HOP-92 NSCLC
HS 578T breast = tested on: HS 578T breast
HT29 colon = tested on: HT29 colon
IGROV1 ovarian = tested on: IGROV1 ovarian
K-562 leukemia = tested on: K-562 leukemia
KM12 colon = tested on: KM12 colon
LOX IMVI melanoma = tested on: LOX IMVI melanoma
M14 melanoma = tested on: M14 melanoma
MCF7 breast = tested on: MCF7 breast
MDA-MB-231 breast = tested on: MDA-MB-231 breast
MDA-MB-435 = tested on: MDA-MB-435
MDA-N = tested on: MDA-N
MOLT-4 leukemia = tested on: MOLT-4 leukemia
NCI-H226 lung = tested on: NCI-H226 lung
NCI-H23 lung = tested on: NCI-H23 lung
NCI-H460 lung = tested on: NCI-H460 lung
NCI/ADR-RES ovarian = tested on: NCI/ADR-RES ovarian
OVCAR-3 ovarian = tested on: OVCAR-3 ovarian
OVCAR-4 ovarian = tested on: OVCAR-4 ovarian
OVCAR-5 ovarian = tested on: OVCAR-5 ovarian
PC-3 prostate = tested on: PC-3 prostate
RPMI-8226 leukemia = tested on: RPMI-8226 leukemia
RXF 393 renal = tested on: RXF 393 renal
SF-268 CNS = tested on: SF-268 CNS
SF-295 CNS = tested on: SF-295 CNS
SF-539 CNS = tested on: SF-539 CNS
SK-MEL-2 melanoma = tested on: SK-MEL-2 melanoma
SK-MEL-28 melanoma = tested on: SK-MEL-28 melanoma
SK-OV-3 ovarian = tested on: SK-OV-3 ovarian
SN12C renal = tested on: SN12C renal
SNB-19 CNS = tested on: SNB-19 CNS
SNB-75 CNS = tested on: SNB-75 CNS
SR leukemia = tested on: SR leukemia
SW-620 colon = tested on: SW-620 colon
T-47D breast = tested on: T-47D breast
TK-10 renal = tested on: TK-10 renal
U251 CNS = tested on: U251 CNS
UACC-257 melanoma = tested on: UACC-257 melanoma
UACC-62 melanoma = tested on: UACC-62 melanoma
UO-31 renal = tested on: UO-31 renal
CAKI-1 renal = tested on: CAKI-1 renal
MALME-3M melanoma = tested on: MALME-3M melanoma
NCI-H522 lung = tested on: NCI-H522 lung
OVCAR-8 ovarian = tested on: OVCAR-8 ovarian
SK-MEL-5 melanoma = tested on: SK-MEL-5 melanoma

Measured: TGI

Cc1cn(CCOCCOC(=O)NC(CCCN=C(N)N)C(=O)O)c(=O)[nH]c1=O (stereo unspecified)
not listed: CAKI-1 renal | MALME-3M melanoma | NCI-H522 lung | OVCAR-8 ovarian | SK-MEL-5 melanoma
> 100 µM: all other assays above

c1ccc(N=C2SC(c3ccccc3)(c3ccccc3)c3ccccc32)cc1
not listed: SR leukemia
> 100 µM: all other assays above

Nc1ncnc2oc(-c3cccs3)nc12
not listed: MOLT-4 leukemia | SK-OV-3 ovarian | SNB-75 CNS | CAKI-1 renal | MALME-3M melanoma
> 100 µM: all other assays above
